According to patent publication US5041567A, “Antibacterial monic acid derivatives” (Beecham Group plc, priority 1982, dated 1991):
In brackets after ≈: the same amount, converted by molar mass. Where two headings read alike, the source gives them in different places.

Legend:
[1] = tested on: Strep. uberis SPU1; test: MIC against veterinary bacteria in vitro; settings: Streptococcus uberis, SPU1, 18 h
Description: (§1) The activity of the compounds of the Examples against various veterinarily important bacteria, was assayed in vitro using two-fold serial dilutions in Diagnostic Sensitivity Test Agar inoculated with 10^4 organisms.

[2] = tested on: Haemophilus influenzae Wy21; test: MIC against human bacteria in vitro; format: cell-based
[3] = tested on: Haemophilus influenzae Q1; test: MIC against human bacteria in vitro; format: cell-based; settings: Haemophilus influenzae Q1; 5% chocolated horse blood agar, 18 hours; read-out: MIC
[4] = tested on: Past. haemolytica PA5; test: MIC against veterinary bacteria in vitro; settings: Mannheimia haemolytica, PA5, 18 h
Description: as §1

[5] = tested on: E. coli E1; test: MIC against veterinary bacteria in vitro; settings: Escherichia coli, E1, 18 h
Description: as §1

[6] = tested on: M. suipneumoniae ATCC 25095; test: MIC against mycoplasma in vitro; format: cell-based; settings: Mesomycoplasma hyopneumoniae, ATCC25095, 144 h
[7] = tested on: M. suipneumoniae LABER; test: MIC against mycoplasma in vitro; format: cell-based; settings: Mesomycoplasma hyopneumoniae, 144 h
[8] = tested on: E. coli NCTC 10418; test: MIC against human bacteria in vitro; format: cell-based; settings: Escherichia coli
[9] = tested on: Corynebacterium xerosis 9755; test: MIC against human bacteria in vitro; format: cell-based; settings: Corynebacterium xerosis 9755; 5% chocolated horse blood agar, 18 hours; read-out: MIC
[10] = tested on: M. pneumoniae ATCC 15492; test: MIC against mycoplasma in vitro; format: cell-based; settings: Mycoplasmoides pneumoniae, ATCC15492, 144 h
[11] = tested on: M. hyosynoviae ATCC 25591; test: MIC against mycoplasma in vitro; format: cell-based; settings: 144 h
[12] = tested on: Past. multocida PA1; test: MIC against veterinary bacteria in vitro; settings: Pasteurella multocida, PA1, 18 h
Description: as §1

[13] = tested on: Neisseria catarrhalis 1502; test: MIC against human bacteria in vitro; format: cell-based
[14] = tested on: E. coli NCTC 10418; test: MIC against veterinary bacteria in vitro; settings: Escherichia coli, NCTC10418, 18 h
Description: as §1

[15] = tested on: Ps. aeruginosa NCTC 10662; test: MIC against human bacteria in vitro; format: cell-based; settings: Pseudomonas aeruginosa, NCTC10662; Ps. aeruginosa NCTC 10662; 5% chocolated horse blood agar, 18 hours; read-out: MIC
[16] = tested on: E. coli ESS; test: MIC against human bacteria in vitro; format: cell-based; settings: Escherichia coli
[17] = tested on: Strep. agalactiae SPA1; test: MIC against veterinary bacteria in vitro; settings: Streptococcus agalactiae, SPA1, 18 h
Description: as §1

[18] = tested on: Bacillus subtilis 6633; test: MIC against human bacteria in vitro; format: cell-based; settings: Bacillus subtilis 6633; 5% chocolated horse blood agar, 18 hours; read-out: MIC
[19] = tested on: S. dublin S7; test: MIC against veterinary bacteria in vitro; settings: Salmonella enterica, S7, 18 h
Description: as §1

[20] = tested on: Staph. aureus Russell; test: MIC against human bacteria in vitro; format: cell-based; settings: Staphylococcus aureus
[21] = tested on: Bord. bronchiseptica B09; test: MIC against veterinary bacteria in vitro; settings: Bordetella bronchiseptica, B09, 18 h
Description: as §1

[22] = tested on: Strep. pyogenes R80/421-A; test: MIC against human bacteria in vitro; format: cell-based; settings: Streptococcus pyogenes; Strep. pyogenes R80/421-A; 5% chocolated horse blood agar, 18 hours; read-out: MIC
[23] = tested on: Strep. spp. 64/848-C; test: MIC against human bacteria in vitro; format: cell-based; settings: Strep. spp. 64/848-C; 5% chocolated horse blood agar, 18 hours; read-out: MIC
[24] = Haemophilus influenzae Wy21, 5% chocolated horse blood agar, 18 hours, read-out: MIC
[25] = M. suipneumoniae ATCC 25095, 6 days, 37° C., read-out: MIC
[26] = M. suipneumoniae LABER, 6 days, 37° C., read-out: MIC
[27] = NCTC10418, E. coli NCTC 10418, agar with 5% chocolated horse blood, 18 hours, 37° C., read-out: MIC
[28] = E. coli ESS, 5% chocolated horse blood agar, 18 hours, read-out: MIC
[29] = M. pneumoniae ATCC 15492, 6 days, 37° C., read-out: MIC
[30] = M. hyosynoviae ATCC 25591, 6 days, 37° C., read-out: MIC
[31] = Neisseria catarrhalis 1502, 5% chocolated horse blood agar, 18 hours, read-out: MIC
[32] = Staph. aureus Russell, 5% chocolated horse blood agar, 18 hours, read-out: MIC

Row | Structure (SMILES) | MIC [1] | MIC [2, 24] | MIC [3] | MIC [4] | MIC [5] | MIC [6, 25] | MIC [7, 26] | MIC [8, 27] | MIC [9] | MIC [12] | MIC [14] | MIC [15] | MIC [16, 28] | MIC [17] | MIC [18] | MIC [19] | MIC [21] | MIC [10, 29] | MIC [13, 31] | MIC [20, 32] | further results
1 | C/C(=C\c1ncc(-c2cccc(C#N)c2)o1)C[C@@H]1OC[C@H](C[C@@H]2O[C@H]2[C@@H](C)[C@H](C)O)[C@@H](O)[C@H]1O [Example 5, 5-m-cyanophenyl-2-(1-normon-2-yl)oxazole A] | 0.07 µg/mL (≈ 0.149 µM) | 1.2 µg/mL (≈ 2.56 µM) | 1.2 µg/mL (≈ 2.56 µM) | 40 µg/mL (≈ 85.4 µM) | > 80 µg/mL | 0.05 µg/mL (≈ 0.107 µM) | 0.05 µg/mL (≈ 0.107 µM) | > 50 µg/mL | > 50 µg/mL | 5 µg/mL (≈ 10.7 µM) | > 80 µg/mL | > 50 µg/mL | 1.2 µg/mL (≈ 2.56 µM) | 0.625 µg/mL (≈ 1.33 µM) | 1.2 µg/mL (≈ 2.56 µM) | > 80 µg/mL | 40 µg/mL (≈ 85.4 µM) | – | – | – | MIC [10]: 0.25 µg/mL (≈ 0.534 µM); MIC [11]: 0.25 µg/mL (≈ 0.534 µM); MIC ([13]; Neisseria, 1502, 18 h): 5 µg/mL (≈ 10.7 µM); MIC ([20]; 18 h): 5 µg/mL (≈ 10.7 µM)
2 | C/C(=C\c1ncc(-c2cccc([N+](=O)[O-])c2)o1)C[C@@H]1OC[C@H](C[C@@H]2O[C@H]2[C@@H](C)[C@H](C)O)[C@@H](O)[C@H]1O [Example 6, 5-m-nitrophenyl-2-(1-normon-2-yl)oxazole A] | 0.07 µg/mL (≈ 0.143 µM) | 2 µg/mL (≈ 4.09 µM) | 2 µg/mL (≈ 4.09 µM) | 80 µg/mL (≈ 164 µM) | > 80 µg/mL | – | – | > 128 µg/mL | > 128 µg/mL | 10 µg/mL (≈ 20.5 µM) | > 80 µg/mL | > 128 µg/mL | 16 µg/mL (≈ 32.8 µM) | 2.5 µg/mL (≈ 5.12 µM) | 2 µg/mL (≈ 4.09 µM) | > 80 µg/mL | 20 µg/mL (≈ 40.9 µM) | 1 µg/mL (≈ 2.05 µM) | 4 µg/mL (≈ 8.19 µM) | 16 µg/mL (≈ 32.8 µM) | MIC [22]: 4 µg/mL (≈ 8.19 µM); MIC [6]: 0.05 µg/mL (≈ 0.102 µM); MIC [7]: 0.05 µg/mL (≈ 0.102 µM); MIC [11, 30]: 0.5 µg/mL (≈ 1.02 µM)
3 | C/C(=C\c1ncc(C)o1)C[C@@H]1OC[C@H](C[C@@H]2O[C@H]2[C@@H](C)[C@H](C)O)[C@@H](O)[C@H]1O [Example 14, 5-Methyl-2-(1-normon-2-yl) oxazole A] | 2.5 µg/mL (≈ 6.55 µM) | 2 µg/mL (≈ 5.24 µM) | 2 µg/mL (≈ 5.24 µM) | > 80 µg/mL | > 80 µg/mL | – | – | > 128 µg/mL | > 128 µg/mL | 10 µg/mL (≈ 26.2 µM) | > 80 µg/mL | > 128 µg/mL | 32 µg/mL (≈ 83.9 µM) | > 80 µg/mL | 4 µg/mL (≈ 10.5 µM) | > 80 µg/mL | > 80 µg/mL | > 10 µg/mL | 16 µg/mL (≈ 41.9 µM) | 16 µg/mL (≈ 41.9 µM) | MIC [22]: 32 µg/mL (≈ 83.9 µM); MIC [6]: 2.5 µg/mL (≈ 6.55 µM); MIC [7]: 2.5 µg/mL (≈ 6.55 µM); MIC [11]: 5 µg/mL (≈ 13.1 µM)
4 | C/C(=C\c1ncc(-c2ccc(C=O)cc2)o1)C[C@@H]1OC[C@H](C[C@@H]2O[C@H]2[C@@H](C)[C@H](C)O)[C@@H](O)[C@H]1O [Example 15, 5-p-Formylphenyl-2-(1-normon-2-yl) oxazole A] | 0.625 µg/mL (≈ 1.33 µM) | 4 µg/mL (≈ 8.48 µM) | 4 µg/mL (≈ 8.48 µM) | 80 µg/mL (≈ 170 µM) | > 80 µg/mL | 0.5 µg/mL (≈ 1.06 µM) | 0.5 µg/mL (≈ 1.06 µM) | > 128 µg/mL | > 128 µg/mL | 10 µg/mL (≈ 21.2 µM) | > 80 µg/mL | > 128 µg/mL | 16 µg/mL (≈ 33.9 µM) | 1.25 µg/mL (≈ 2.65 µM) | 2 µg/mL (≈ 4.24 µM) | > 80 µg/mL | 20 µg/mL (≈ 42.4 µM) | – | 4 µg/mL (≈ 8.48 µM) | 8 µg/mL (≈ 17 µM) | MIC [22]: 8 µg/mL (≈ 17 µM); MIC [10]: 1 µg/mL (≈ 2.12 µM); MIC [11, 30]: 0.5 µg/mL (≈ 1.06 µM)
5 | C/C(=C\c1cc(C)on1)C[C@@H]1OC[C@H](C[C@@H]2O[C@H]2[C@@H](C)[C@H](C)O)[C@@H](O)[C@H]1O [Example 33, 5-Methyl-3-(1-normon-2-yl) isoxazole A] | 5 µg/mL (≈ 13.1 µM) | – | – | 20 µg/mL (≈ 52.4 µM) | > 80 µg/mL | – | – | > 128 µg/mL | > 128 µg/mL | 1.3 µg/mL (≈ 3.41 µM) | > 80 µg/mL | > 128 µg/mL | 8 µg/mL (≈ 21 µM) | 10 µg/mL (≈ 26.2 µM) | 1 µg/mL (≈ 2.62 µM) | > 80 µg/mL | > 80 µg/mL | 10 µg/mL (≈ 26.2 µM) | 4 µg/mL (≈ 10.5 µM) | 8 µg/mL (≈ 21 µM) | MIC ([2]; Haemophilus influenzae, WY21, 18 h): 0.25 µg/mL (≈ 0.655 µM); MIC [22]: 8 µg/mL (≈ 21 µM); MIC [6]: 1 µg/mL (≈ 2.62 µM); MIC [23]: 32 µg/mL (≈ 83.9 µM); MIC [7]: 2.5 µg/mL (≈ 6.55 µM); MIC [11]: 2.5 µg/mL (≈ 6.55 µM)
6 | C/C(=C\c1nc(C)c(C)o1)C[C@@H]1OC[C@H](C[C@@H]2O[C@H]2[C@@H](C)[C@H](C)O)[C@@H](O)[C@H]1O [Example 39, 4,5-Dimethyl-2-(1-normon-2-yl)oxazole A] | > 80 µg/mL | 2.5 µg/mL (≈ 6.32 µM) | 5 µg/mL (≈ 12.6 µM) | 80 µg/mL (≈ 202 µM) | > 80 µg/mL | > 10 µg/mL | > 10 µg/mL | – | > 100 µg/mL | 80 µg/mL (≈ 202 µM) | > 80 µg/mL | > 100 µg/mL | – | – | > 100 µg/mL | > 80 µg/mL | > 80 µg/mL | > 10 µg/mL | 25 µg/mL (≈ 63.2 µM) | > 100 µg/mL | MIC ([8]; NCTC10418, 18 h): > 100 µg/mL; MIC [11, 30]: > 10 µg/mL; MIC ([16]; 18 h): > 100 µg/mL
7 | C/C(=C\c1nc(C)c(-c2ccccc2)o1)C[C@@H]1OC[C@H](C[C@@H]2O[C@H]2[C@@H](C)[C@H](C)O)[C@@H](O)[C@H]1O [Example 40, 4-Methyl-2-(1-normon-2-yl)-5-phenyloxazole A] | 40 µg/mL (≈ 87.4 µM) | 50 µg/mL (≈ 109 µM) | 50 µg/mL (≈ 109 µM) | > 80 µg/mL | > 80 µg/mL | > 10 µg/mL | > 10 µg/mL | – | > 100 µg/mL | 80 µg/mL (≈ 175 µM) | > 80 µg/mL | > 100 µg/mL | – | > 80 µg/mL | 100 µg/mL (≈ 219 µM) | > 80 µg/mL | > 80 µg/mL | > 10 µg/mL | 50 µg/mL (≈ 109 µM) | 100 µg/mL (≈ 219 µM) | MIC ([8]; NCTC10418, 18 h): > 100 µg/mL; MIC [11, 30]: > 10 µg/mL; MIC ([16]; 18 h): 100 µg/mL (≈ 219 µM)
